Test results: PubChem BioAssay (NCI)
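Five compound concentrations were applied to cells in 96-well plates for 48 hours; endpoints were derived by simple linear interpolation of the resulting dose-response curve. TGI is the concentration that stops growth completely.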

Columns and labels:
Assay in all cases: growth of human tumour cells (NCI), 48 h
OVCAR-5 ovarian = system: OVCAR-5 ovarian
IGROV1 ovarian = system: IGROV1 ovarian
MALME-3M melanoma = system: MALME-3M melanoma
CCRF-CEM leukemia = system: CCRF-CEM leukemia
EKVX NSCLC = system: EKVX NSCLC
RXF 393 renal = system: RXF 393 renal
SF-295 CNS = system: SF-295 CNS
UACC-257 melanoma = system: UACC-257 melanoma
DU-145 prostate = system: DU-145 prostate
MCF7 breast = system: MCF7 breast
PC-3 prostate = system: PC-3 prostate

| SMILES | TGI (OVCAR-5 ovarian) | TGI (IGROV1 ovarian) | TGI (MALME-3M melanoma) | TGI (CCRF-CEM leukemia) | TGI (EKVX NSCLC) | TGI (RXF 393 renal) | TGI (SF-295 CNS) | TGI (UACC-257 melanoma) | TGI (DU-145 prostate) | TGI (MCF7 breast) | TGI (PC-3 prostate) |
| --- | --- | --- | --- | --- | --- | --- | --- | --- | --- | --- | --- |
| CCc1cccc(C(C)C)c1NC(=O)C(=O)C(C(=O)C(=O)OC)c1nc2ccccc2[nH]c1=O (stereo unspecified) | > 100 µM | > 100 µM | > 100 µM | > 100 µM | > 100 µM | > 100 µM | > 100 µM | > 100 µM | – | – | – |
| Cc1ccc(NC(=O)CC(=O)n2nc(-c3ccccc3)c(N=Nc3ccc(Cl)cc3)c2-c2ccccc2)cc1 | > 100 µM | > 100 µM | > 100 µM | 54.3 µM | > 100 µM | – | > 100 µM | > 100 µM | – | – | – |
| CC12O[C@H](c3ccccc3)[C@H](c3ccccc3)N1C(=O)C1(C(=O)OCc3ccccc3)CC12 (stereo partly specified) | > 100 µM | > 100 µM | > 100 µM | > 100 µM | – | – | > 100 µM | > 100 µM | – | – | – |
| CN(C)C(=O)CC(C(=O)O)c1c[nH]c2ccccc12 (stereo unspecified) | – | > 100 µM | > 100 µM | > 100 µM | > 100 µM | > 100 µM | > 100 µM | > 100 µM | – | – | – |
| N#C/C(=C/c1cccnc1)C(=O)c1ccccc1 | > 100 µM | – | > 100 µM | > 100 µM | > 100 µM | > 100 µM | > 100 µM | > 100 µM | – | – | – |
| C/C(Cl)=N\OC(=O)Nc1ccccc1C(F)(F)F | > 100 µM | > 100 µM | 48.1 µM | 53 µM | 57.6 µM | – | > 100 µM | > 100 µM | > 100 µM | 61.5 µM | > 100 µM |
| COc1ccc(C(=O)N2CCN(c3ccc4c(c3)OCC(=O)N4)CC2)cc1 | > 100 µM | > 100 µM | > 100 µM | > 100 µM | > 100 µM | – | > 100 µM | > 100 µM | > 100 µM | > 100 µM | > 100 µM |
| c1ccc2nc3[nH]c4ccccc4c3cc2c1 | 20.4 µM | 2.57 µM | 2.12 µM | > 100 µM | 4.8 µM | 2.66 µM | 2.24 µM | 2.47 µM | 13.1 µM | – | 4.09 µM |
| Oc1ccc(-c2nc3cc(C(F)(F)F)ccc3n2CC2CCCN3CCCCC23)cc1 (stereo unspecified) | 67 µM | 26 µM | – | 31.8 µM | 31 µM | 34.5 µM | 28.4 µM | 30.3 µM | 36.1 µM | 25.2 µM | 27.1 µM |
| NC(=O)N/N=C(\Cc1nc2ccc(C(=O)c3ccccc3)cc2[nH]c1=O)C(=O)Nc1ccc(Br)cc1 | > 100 µM | > 100 µM | > 100 µM | > 100 µM | > 100 µM | > 100 µM | > 100 µM | > 100 µM | – | – | – |
| Cc1cc(N(CCC#N)CCC#N)ccc1/C=C(\NC(=O)/C=C/c1ccccc1)NC(=O)Nc1ccc(Cl)cc1 | > 100 µM | > 100 µM | > 100 µM | > 100 µM | > 100 µM | 52.6 µM | > 100 µM | > 100 µM | – | – | – |
| OC(c1cccs1)c1cc2ccccc2s1 (stereo unspecified) | > 10 µM | > 10 µM | – | > 10 µM | > 10 µM | > 10 µM | > 10 µM | > 10 µM | > 10 µM | > 10 µM | > 10 µM |
| CC(=O)Oc1ccn2nc(C)c(Br)c2c1Br | – | > 72.2 µM | 40.6 µM | 47.1 µM | > 58.5 µM | – | > 89.3 µM | 32.2 µM | > 100 µM | 36.1 µM | 43.7 µM |
| OCCCSc1ccccc1SCCCO | > 100 µM | > 100 µM | – | > 100 µM | > 100 µM | – | > 100 µM | > 100 µM | > 100 µM | > 100 µM | > 100 µM |
| O=C(CSc1nnc(Cc2ccccc2)o1)Nc1ccc(Cl)cc1 | > 100 µM | > 100 µM | > 100 µM | > 100 µM | 92.4 µM | > 100 µM | > 100 µM | > 100 µM | – | – | – |
| CCOC(OCC)C(CC)[Se]c1ccccc1[N+](=O)[O-] (stereo unspecified) | > 100 µM | > 100 µM | > 100 µM | > 62.5 µM | > 100 µM | 5.59 µM | > 22.9 µM | > 94.6 µM | > 100 µM | – | > 100 µM |
| O=c1nc2n(cc1/C=C\Br)C1CC(O)C(CO2)O1 (stereo unspecified) | > 100 µM | > 100 µM | > 100 µM | > 100 µM | > 100 µM | 57 µM | > 100 µM | > 100 µM | > 100 µM | > 100 µM | – |
| CCOC(=O)c1c(C)n(Cc2ccccc2)c2c1cc(O)c1[nH]c3c(c12)CCCC3 | 20.1 µM | 15.6 µM | 15.6 µM | 7.4 µM | 8.12 µM | – | 11.5 µM | 52.4 µM | 26.1 µM | 13.3 µM | 9.92 µM |
| O=C(O)c1c(CC(Cc2ccc3c(c2)CCCC3)C(=O)O)ccc2c1CCCC2 (stereo unspecified) | > 100 µM | > 100 µM | > 100 µM | > 100 µM | > 100 µM | > 100 µM | > 100 µM | > 100 µM | > 100 µM | – | > 100 µM |
| CC1=C/C(=N/N2C(=O)/C(=C/c3ccc(Cl)cc3)N=C2c2ccccc2)CC(C)(C)C1 | > 100 µM | > 100 µM | > 100 µM | – | > 100 µM | > 100 µM | > 100 µM | > 100 µM | – | > 100 µM | > 100 µM |
| CCCn1cnc2c(NN=O)ncnc21 | > 100 µM | > 100 µM | > 100 µM | – | > 100 µM | > 100 µM | – | – | > 100 µM | > 100 µM | > 100 µM |
| O=[N+]([O-])c1ccc(NC2OCC(O)C(O)C2O)cc1 (stereo unspecified) | – | > 100 µM | > 100 µM | > 100 µM | > 100 µM | > 100 µM | > 100 µM | > 100 µM | – | – | – |
| Oc1ccc2c(c1)OCC(O)(c1ccccc1O)C2 (stereo unspecified) | > 100 µM | > 100 µM | – | > 100 µM | > 100 µM | > 100 µM | > 100 µM | > 100 µM | > 100 µM | > 100 µM | > 100 µM |
| Cc1ccc(/C=C2\NC(=S)N(CN3CCOCC3)C2=O)cc1 | > 100 µM | > 100 µM | > 100 µM | > 100 µM | > 100 µM | – | > 100 µM | > 100 µM | > 100 µM | > 100 µM | > 100 µM |
